PMC8759731, “Design, synthesis, and evaluation of novel coumarin-dithiocarbamate derivatives (IDs) as anti-colorectal cancer agents” (Journal of Enzyme Inhibition and Medicinal Chemistry, 2021)

Key:
SW480 cells [1] = assay: Western blot assay, SW480 cells; assay type: cell-based, human; settings: 24 h
Protocol: (§1) Cells were cultured in 6-well plates at a density of 40,000 cells per well overnight, and then exposed to selected compounds at different concentrations for 24 h. Subsequently, the cells were lysed in lysate buffer containing 50 mM Tris-HCl (PH 6.8), 2% SDS, 0.1% bromophenol blue, 1.5% DTT, 10% glycerol. The total protein extracts were boiled, sonicated, separated by 10–12% SDS-PAGE gels and transferred to polyvinylidene fluoride (PVDF) membranes. Then the membranes were blocked with 5% non-fat milk at room temperature for 1 h and incubated with primary antibodies at 4 °C overnight. After that, membranes were washed with 1× TBST for three times and incubated with secondary antibody at room temperature for 2 h. Finally, after washing with 1× TBST for three times, the bolts were visualised by an enhanced chemiluminescence kit (Beyotime, China) using the Amersham Imager 600 system (GE Healthcare Life Science, Shanghai, China).

RKO cells = assay: MTS cell viability assay, RKO cells; assay type: cell-based; settings: Homo sapiens, 72 h
Source text: (§2) Human colorectal cancer cell lines including RKO, SW620 and SW480 were purchased from Chinese Academy of Sciences, a typical cell library culture preservation committee (Shanghai, China). Normal human colon epithelial cell line NCM460 was purchased from ATCC (Washington, DC, USA). RPMI-1640 medium (12633020), foetal bovine serum (FBS, 26170043), penicillin-streptomycin (10378016) and phosphate buffered saline (PBS, 70011044) were purchased from Gibco (Eggenstein, Germany). 5-Fluorouracil (5-FU, E0201010050, purity ≥98%) was purchased from Energy Chemical (Shanghai, China). Dimethyl sulfoxide (DMSO, 41639) was obtained from Sigma-Aldrich (St. Louis, MO). 3–(4,5-dimethylthiazol-2-yl)-5–(3-carboxymethoxyphenyl)-2–(4-sulfophenyl)-2H-tetrazolium (MTS, G1111) was purchased from Promega (Madison, WI, USA). All cell lines were cultured in RPMI-1640 medium supplemented with 10% FBS, penicillin (100 units/mL) and streptomycin ([…]) at 37 °C in a humidified atmosphere containing 5% CO2.
(§3) Cell viability was measured via MTS assay. RKO, SW620, SW480 and NCM460 cells were seeded in 96-well plates at a density of 5000 cells per well for 24 h. After treatment with the test compounds at indicated concentration for another 48 h or 72 h at 37 °C, MTS solution was added to each well and incubated for another 30 min at 37 °C. Then, the absorbance at 490 nm was measured by a BioTek Synergy H4 microplate Reader (Vermont, USA). The IC50 values were calculated with Graphpad 7.0 software packages.

SW480 cells [2] = assay: MTS cell viability assay, SW480 cells; assay type: cell-based; settings: Homo sapiens, 72 h
Source text: as §2, §3

SW620 cells [3] = assay: Colony formation, SW620 cells; assay type: cell-based, human; settings: 0 to 32 μM for 24 h, then 10 days
Protocol: (§4) SW620 and SW480 cells were seeded in 6-well plates (1000 cells per well) and cultured in RPMI-1640 medium containing 10% FBS overnight. After the cells treatment with DMSO or compound ID-11 (4, 8, 16, and 32 μM) for 24 h, the culture medium was replaced by fresh RPMI-1640 medium (containing 10% FBS) and continue culturing for another 10 days. Then the cells were washed with PBS and fixed with methanol for 15 min and stained with 0.1% crystal violet for another 30 min. Finally, the cells were washed with running water, air-dried and visualised by photographing.

SW480 cells [4] = assay: Colony formation, SW480 cells; assay type: cell-based, human; settings: 0 to 32 μM for 24 h, then 10 days
Protocol: as §4

SW620 cells [5] = assay: MTS cell viability assay, SW620 cells; assay type: cell-based; settings: Homo sapiens
Source text: as §2, §3

SW480 cells [6] = assay: Annexin V-FITC/PI apoptosis analysis, SW480 cells; assay type: cell-based, human; settings: SW480, 16 μM, 24 h
Protocol: (§5) Cell apoptosis was determined using Annexin V-FITC/PI Apoptosis Detection Kit (BD Biosciences, New Jersey, USA) in according with manufacturer's instruction. Briefly, cells were cultured in 6-well plates (40 000 cells per well) till reaching logarithmic growth phase and then treatment with DMSO or compound ID-11 (8 or 16 μM) for 24 h. Afterwards, the cells were harvested, washed with PBS for twice and stained with 100 μL of the mixture of Annexin V/FITC and PI in binding buffer (v/v, 5: 5: 100) in the darkness for 30 min. Another 200 μL binding buffer was added before detection. The apoptotic cells were then analysed by FACS Calibur flow cytometry immediately.

SW620 cells [7] = assay: Western blot assay, SW620 cells; assay type: cell-based, human; settings: 24 h
Protocol: as §1

SW480 cells [8] = assay: Quantitative RT-PCR, SW480 cells; assay type: cell-based, human; settings: SW480, 0 to 24 μM, 24 h, qRT-PCR
Protocol: (§6) Cells (50,000 cells per well) incubated in 6-well plates were treated with compound ID-11 for 24 h. After that, the total RNA was extracted using Total RNA Extraction Reagent (Invitrogen, USA) according to the manufacturer’s instructions and quantified with NanoDrop 2000 (Nanodrop, USA). Then the cDNA was synthesized from total RNA using High-Capacity cDNA Reverse Transcription Kit (Applied Biosystems, USA). The SYBR Green Master reagents (Applied Biosystems, USA) was used to determine the relative expression of mRNA level by quantitative real-time PCR (qRT-PCR). The primer sequences are shown below.

SW620 cells [9] = assay: Annexin V-FITC/PI apoptosis analysis, SW620 cells; assay type: cell-based, human; settings: SW620, 16 μM, 24 h
Protocol: as §5

SW620 cells [10] = assay: Quantitative RT-PCR, SW620 cells; assay type: cell-based, human; settings: SW620, 0 to 24 μM, 24 h, qRT-PCR
Protocol: as §6

## O=c1ccc2cc(CSC(=S)n3ccnc3)ccc2o1 [ID-11, (2-Oxo-2H-chromen-6-yl)methyl 1H-imidazole-1-carbodithioate]
SW480 cells [1]; SW480, 0 to 16 μM
  expression level of cdc2: decreased in a concentration-dependent way
  expression level of cleaved PARP: increased in a dose-dependent way
  expression level of cyclin B1: decreased in a concentration-dependent way
SW480 cells [1]; SW480, 0 to 24 μM
  protein expression level of Bcl-2: decreased
  protein expression level of c-Myc: decreased
RKO cells; 10 μM
  viability at 10 µM: 29.4%
RKO cells
  IC50: 6.4 µM
SW480 cells [2]; 10 μM
  viability at 10 µM: 20.2%
SW480 cells [2]
  IC50: 3.57 µM
SW620 cells [3]
  colony formation: effectively inhibited
SW480 cells [4]
  colony formation: effectively inhibited
SW620 cells [5]; SW-620, 10 μM, 72 h
  viability at 10 µM: 43.9%
SW620 cells [5]; SW-620, 72 h
  IC50: 8.81 µM
SW480 cells [6]
  total apoptosis rate: 23.23%
SW620 cells [7]; SW620, 0 to 16 μM
  expression level of cdc2: decreased in a concentration-dependent way
  expression level of cleaved PARP: increased in a dose-dependent way
  expression level of cyclin B1: decreased in a concentration-dependent way
SW620 cells [7]; SW620, 0 to 24 μM
  protein expression level of Bcl-2: decreased
  protein expression level of c-Myc: decreased
other
  melting point: 139.1 to 140 °C
SW480 cells [8]
  mRNA relative expression level of Bcl-2: also decreased in a concentration dependent way
  mRNA relative expression level of c-Myc: also decreased in a concentration dependent way
SW620 cells [9]
  total apoptosis rate: 73.31%
SW620 cells [10]
  mRNA relative expression level of Bcl-2: also decreased in a concentration dependent way
  mRNA relative expression level of c-Myc: also decreased in a concentration dependent way
